Data from PubChem BioAssay AID1963437 (Molecular Pharmacology Branch, DTP, NCI, 2024).
Values joined by “and” are separate entries in the source; they are usually repeats but may differ in a detail not shown here. Equal values may be shown once. Blank lines part the entries; values can stand above or below the compound they belong to.

System: OVCAR-8 complex spheroid, growth inhibition
Assay: Anticancer human tumor OVCAR-8 cell line growth inhibition [Asc];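 note: spheroids exposed to agents for 7 days before readout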;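 for viability, T/C: percent viability relative to DMSO vehicle wells taken as 100%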
Settings: for viability, T/C: stronger effect = lower value
In short: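 Tumor cells were grown as multicellular spheroids with stromal HUVEC and mesenchymal stem cells and treated singly or in combination. Concentrations fell in half-log steps from the clinical Cmax, or from 10 microM where none was known.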

[1] = curve of first compound, second compound 0.00949 µM
[2] = curve of first compound, second compound 0.03 µM
[3] = curve of first compound, second compound 0.0949 µM
[4] = curve of first compound, second compound 0.3 µM
[5] = curve of first compound, second compound 0.949 µM
[6] = curve of first compound, second compound 3 µM
[7] = second compound 0.00949 µM, first compound 0.00316 µM
[8] = second compound 0.00949 µM, first compound 0.01 µM
[9] = second compound 0.00949 µM, first compound 0.0316 µM
[10] = second compound 0.00949 µM, first compound 0.1 µM
[11] = second compound 0.00949 µM, first compound 0.316 µM
[12] = second compound 0.00949 µM, first compound 1 µM
[13] = second compound 0.03 µM, first compound 0.00316 µM
[14] = second compound 0.03 µM, first compound 0.01 µM
[15] = second compound 0.03 µM, first compound 0.0316 µM
[16] = second compound 0.03 µM, first compound 0.1 µM
[17] = second compound 0.03 µM, first compound 0.316 µM
[18] = second compound 0.03 µM, first compound 1 µM
[19] = second compound 0.0949 µM, first compound 0.00316 µM
[20] = second compound 0.0949 µM, first compound 0.01 µM
[21] = second compound 0.0949 µM, first compound 0.0316 µM
[22] = second compound 0.0949 µM, first compound 0.1 µM
[23] = second compound 0.0949 µM, first compound 0.316 µM
[24] = second compound 0.0949 µM, first compound 1 µM
[25] = second compound 0.3 µM, first compound 0.00316 µM
[26] = second compound 0.3 µM, first compound 0.01 µM
[27] = second compound 0.3 µM, first compound 0.0316 µM
[28] = second compound 0.3 µM, first compound 0.1 µM
[29] = second compound 0.3 µM, first compound 0.316 µM
[30] = second compound 0.3 µM, first compound 1 µM
[31] = second compound 0.949 µM, first compound 0.00316 µM
[32] = second compound 0.949 µM, first compound 0.01 µM
[33] = second compound 0.949 µM, first compound 0.0316 µM
[34] = second compound 0.949 µM, first compound 0.1 µM
[35] = second compound 0.949 µM, first compound 0.316 µM
[36] = second compound 0.949 µM, first compound 1 µM
[37] = second compound 3 µM, first compound 0.00316 µM
[38] = second compound 3 µM, first compound 0.01 µM
[39] = second compound 3 µM, first compound 0.0316 µM
[40] = second compound 3 µM, first compound 0.1 µM
[41] = second compound 3 µM, first compound 0.316 µM
[42] = second compound 3 µM, first compound 1 µM

IC50 [1]: > 1000 nM
IC50 [2]: > 1000 nM
IC50 [3]: > 1000 nM
IC50 [4]: > 1000 nM
IC50 [5]: > 1000 nM
IC50 [6]: > 1000 nM
Structure (SMILES): CNC(C)C(=O)NC1CN(S(=O)(=O)c2cccc(S(=O)(=O)N3CCC4CCC(C(=O)NC(c5ccccc5)c5ccccc5)N4C(=O)C(NC(=O)C(C)NC)C3)c2)CCC2CCC(C(=O)NC(c3ccccc3)c3ccccc3)N2C1=O (stereo not drawn) + CCN1C(C(=O)NC23CCC(C(=O)O)(CC2)CC3)C(c2cccc(Cl)c2F)C2(C(=O)Nc3cc(Cl)ccc32)C12CCCCC2
viability, T/C [7]: 100%
viability, T/C [8]: 83.8%
viability, T/C [9]: 91.8%
viability, T/C [10]: 76.4%
viability, T/C [11]: 75.4%
viability, T/C [12]: 71.3%
viability, T/C [13]: 107%
viability, T/C [14]: 99.3%
viability, T/C [15]: 94%
viability, T/C [16]: 88.8%
viability, T/C [17]: 75%
viability, T/C [18]: 83.3%
viability, T/C [19]: 94.7%
viability, T/C [20]: 98.1%
viability, T/C [21]: 90.9%
viability, T/C [22]: 79%
viability, T/C [23]: 74.4%
viability, T/C [24]: 63.6%
viability, T/C [25]: 112%
viability, T/C [26]: 101%
viability, T/C [27]: 86.7%
viability, T/C [28]: 65.9%
viability, T/C [29]: 68.6%
viability, T/C [30]: 70.1%
viability, T/C [31]: 91.7%
viability, T/C [32]: 89.1%
viability, T/C [33]: 99%
viability, T/C [34]: 76.7%
viability, T/C [35]: 64.3%
viability, T/C [36]: 66.8%
viability, T/C [37]: 118%
viability, T/C [38]: 102%
viability, T/C [39]: 115%
viability, T/C [40]: 88%
viability, T/C [41]: 84.5%
viability, T/C [42]: 88%

IC50 [1]: > 1000 nM
IC50 [2]: > 1000 nM
IC50 [3]: > 1000 nM
IC50 [4]: > 1000 nM
IC50 [5]: > 1000 nM
IC50 [6]: > 1000 nM
Structure (SMILES): O=C(c1ccc(F)c(F)c1Nc1ccc(I)cc1F)N1CC(O)([C@@H]2CCCCN2)C1 + CCN1C(C(=O)NC23CCC(C(=O)O)(CC2)CC3)C(c2cccc(Cl)c2F)C2(C(=O)Nc3cc(Cl)ccc32)C12CCCCC2
viability, T/C [7]: 102%
viability, T/C [8]: 102%
viability, T/C [9]: 119%
viability, T/C [10]: 153%
viability, T/C [11]: 230%
viability, T/C [12]: 104%
viability, T/C [13]: 106%
viability, T/C [14]: 108%
viability, T/C [15]: 138%
viability, T/C [16]: 161%
viability, T/C [17]: 241%
viability, T/C [18]: 101%
viability, T/C [19]: 101%
viability, T/C [20]: 97%
viability, T/C [21]: 122%
viability, T/C [22]: 168%
viability, T/C [23]: 208%
viability, T/C [24]: 113%
viability, T/C [25]: 105%
viability, T/C [26]: 103%
viability, T/C [27]: 159%
viability, T/C [28]: 173%
viability, T/C [29]: 238%
viability, T/C [30]: 137%
viability, T/C [31]: 97.2%
viability, T/C [32]: 102%
viability, T/C [33]: 163%
viability, T/C [34]: 175%
viability, T/C [35]: 248%
viability, T/C [36]: 139%
viability, T/C [37]: 151%
viability, T/C [38]: 141%
viability, T/C [39]: 183%
viability, T/C [40]: 217%
viability, T/C [41]: 260%
viability, T/C [42]: 161%

IC50 (curve of compound): > 10000 nM
Structure (SMILES): O=C(c1cc(Cc2n[nH]c(=O)c3ccccc23)ccc1F)N1CCN(C(=O)C2CC2)CC1
viability, T/C (compound 0.0316 µM): 105% and 97.4% and 98.4%
viability, T/C (compound 0.1 µM): 103% (2×) and 97.7%
viability, T/C (compound 0.316 µM): 99% and 82.4% and 107%
viability, T/C (compound 1 µM): 117% and 95.4% and 121%
viability, T/C (compound 3.16 µM): 134% and 104% and 110%
viability, T/C (compound 10 µM): 116% and 122% and 95.5%

IC50 [1]: > 3000 nM
IC50 [2]: > 3000 nM
IC50 [3]: > 3000 nM
IC50 [4]: > 3000 nM
IC50 [5]: > 3000 nM
IC50 [6]: > 3000 nM
Structure (SMILES): Cc1nc(N2CCC3(CC2)COC(C)C3N)c(CO)nc1Sc1ccnc(N)c1Cl (stereo not drawn) + CCN1C(C(=O)NC23CCC(C(=O)O)(CC2)CC3)C(c2cccc(Cl)c2F)C2(C(=O)Nc3cc(Cl)ccc32)C12CCCCC2
viability, T/C (second compound 0.00949 µM, first compound 0.00949 µM): 101%
viability, T/C (second compound 0.00949 µM, first compound 0.03 µM): 122%
viability, T/C (second compound 0.00949 µM, first compound 0.0949 µM): 152%
viability, T/C (second compound 0.00949 µM, first compound 0.3 µM): 216%
viability, T/C (second compound 0.00949 µM, first compound 0.949 µM): 263%
viability, T/C (second compound 0.00949 µM, first compound 3 µM): 209%
viability, T/C (second compound 0.03 µM, first compound 0.00949 µM): 108%
viability, T/C (second compound 0.03 µM, first compound 0.03 µM): 139%
viability, T/C (second compound 0.03 µM, first compound 0.0949 µM): 142%
viability, T/C (second compound 0.03 µM, first compound 0.3 µM): 204%
viability, T/C (second compound 0.03 µM, first compound 0.949 µM): 241%
viability, T/C (second compound 0.03 µM, first compound 3 µM): 221%
viability, T/C (second compound 0.0949 µM, first compound 0.00949 µM): 103%
viability, T/C (second compound 0.0949 µM, first compound 0.03 µM): 117%
viability, T/C (second compound 0.0949 µM, first compound 0.0949 µM): 154%
viability, T/C (second compound 0.0949 µM, first compound 0.3 µM): 200%
viability, T/C (second compound 0.0949 µM, first compound 0.949 µM): 244%
viability, T/C (second compound 0.0949 µM, first compound 3 µM): 228%
viability, T/C (second compound 0.3 µM, first compound 0.00949 µM): 115%
viability, T/C (second compound 0.3 µM, first compound 0.03 µM): 126%
viability, T/C (second compound 0.3 µM, first compound 0.0949 µM): 153%
viability, T/C (second compound 0.3 µM, first compound 0.3 µM): 221%
viability, T/C (second compound 0.3 µM, first compound 0.949 µM): 251%
viability, T/C (second compound 0.3 µM, first compound 3 µM): 232%
viability, T/C (second compound 0.949 µM, first compound 0.00949 µM): 106%
viability, T/C (second compound 0.949 µM, first compound 0.03 µM): 101%
viability, T/C (second compound 0.949 µM, first compound 0.0949 µM): 175%
viability, T/C (second compound 0.949 µM, first compound 0.3 µM): 229%
viability, T/C (second compound 0.949 µM, first compound 0.949 µM): 223%
viability, T/C (second compound 0.949 µM, first compound 3 µM): 214%
viability, T/C (second compound 3 µM, first compound 0.00949 µM): 125%
viability, T/C (second compound 3 µM, first compound 0.03 µM): 140%
viability, T/C (second compound 3 µM, first compound 0.0949 µM): 171%
viability, T/C (second compound 3 µM, first compound 0.3 µM): 214%
viability, T/C (second compound 3 µM, first compound 0.949 µM): 192%
viability, T/C (second compound 3 µM, first compound 3 µM): 169%
